From patent EP4722228A1, “NEW COMPOUND TARGETING MUSK AND USE THEREOF” (The University of Tokyo, priority 2023, dated 2024)
Bridge positions count the residues as written; N and C are the ends. Square brackets hold non-standard residues; d marks the D form. Peptide text beside a SMILES is read from it. I, II: the chains in the order shown. * marks the point of attachment. Palmitoyl = CCCCCCCCCCCCCCCC(=O)*; PEG3 = NCCOCCOCCOCCC(=O)O; Dap = NC[C@H](N)C(=O)O

Biological target: T1, human MuSK (Homo sapiens, UniProt O15146)
T1 construct: fused downstream of the extracellular portion (amino acids 1-493) of human MuSK cDNA clone; made in house; host or cells: Expi293 cells; unpurified culture supernatant used
T1 sequence (O15146 24-493) 1: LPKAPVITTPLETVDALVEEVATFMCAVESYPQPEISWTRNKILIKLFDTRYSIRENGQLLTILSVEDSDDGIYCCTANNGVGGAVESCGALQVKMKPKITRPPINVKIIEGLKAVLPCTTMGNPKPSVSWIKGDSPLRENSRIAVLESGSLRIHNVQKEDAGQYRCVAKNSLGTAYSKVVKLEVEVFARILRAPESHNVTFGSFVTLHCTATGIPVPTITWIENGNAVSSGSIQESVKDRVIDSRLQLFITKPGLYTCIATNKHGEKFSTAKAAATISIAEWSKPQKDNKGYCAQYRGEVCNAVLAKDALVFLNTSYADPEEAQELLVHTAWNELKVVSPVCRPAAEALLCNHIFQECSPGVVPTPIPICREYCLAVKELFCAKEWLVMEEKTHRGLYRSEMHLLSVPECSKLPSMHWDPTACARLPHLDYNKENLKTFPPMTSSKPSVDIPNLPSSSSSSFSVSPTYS
T1 sequence (O15146 24-493) 2: T1 sequence (O15146 24-493) 1
Assay: MuSK dimerization activity (NanoBiT assay)
Format: biochemical
Protocol: Expi293 cells were purchased from Thermo Fisher Scientific Inc. and used. For subculture, DMEM (high glucose, GlutaMAX supplement, pyruvate; GIBCO) supplemented with 10% fetal bovine serum (FBS; GIBCO) was used. For passage, after the culture medium was removed by suction, adherent cells were washed with phosphate buffered saline (PBS(-)), and HBSS (GIBCO) containing no Mg^2+ and Ca^2+ and containing 0.25% trypsin and 1 mM ethylenediaminetetraacetic acid was added, and the mixture was reacted in a CO2 incubator (37°C, 5% CO2) for 5 minutes. The detached cells were collected and then centrifuged at 1000 rpm at 4°C for 5 minutes (Sorvall X4R Pro, Thermo Fisher Scientific Inc.). After the supernatant was removed by suction, the cells were suspended in fresh culture medium and expanded in a new culture vessel.
In the steady state, their affinity is estimated to be about 190 µM, and the amount of luminescence is very small even in the presence of substrate. […] A technique for evaluating interactions between two arbitrary proteins by utilizing this property is the NanoBiT assay. […]
The effect of the U-bodies and their complexes on clustering of acetylcholine receptors was evaluated. […]

SMILES: CCCCCCCCCCCCCCCC(=O)NCCCC[C@H](NC(=O)[C@H](CNC(=O)CCOCCOCCOCCNC(=O)CNC(=O)[C@@H]1CSCC(=O)N[C@H](Cc2ccc(O)cc2)C(=O)N2CCC[C@H]2C(=O)N[C@@H](CO)C(=O)N[C@@H](Cc2ccc(O)cc2)C(=O)N[C@@H](Cc2c[nH]cn2)C(=O)N[C@@H]([C@@H](C)O)C(=O)N[C@@H](CC(N)=O)C(=O)N[C@@H](C(C)C)C(=O)N[C@@H](C(C)C)C(=O)N[C@@H](C)C(=O)N[C@@H](CO)C(=O)N[C@@H](CC(C)C)C(=O)N[C@@H](CCCCN)C(=O)N[C@@H](CCCNC(=N)N)C(=O)N1)NC(=O)CCOCCOCCOCCNC(=O)CNC(=O)[C@@H]1CSCC(=O)N[C@H](Cc2ccc(O)cc2)C(=O)N2CCC[C@H]2C(=O)N[C@@H](CO)C(=O)N[C@@H](Cc2ccc(O)cc2)C(=O)N[C@@H](Cc2c[nH]cn2)C(=O)N[C@@H]([C@@H](C)O)C(=O)N[C@@H](CC(N)=O)C(=O)N[C@@H](C(C)C)C(=O)N[C@@H](C(C)C)C(=O)N[C@@H](C)C(=O)N[C@@H](CO)C(=O)N[C@@H](CC(C)C)C(=O)N[C@@H](CCCCN)C(=O)N[C@@H](CCCNC(=N)N)C(=O)N1)C(N)=O [MuSK7-pal] (I: {CH2CO}-[dY]PSYHTNVVASLKRCG[PEG3][Dap]K(Palmitoyl)-NH2 / II: {CH2CO}-[dY]PSYHTNVVASLKRCG[PEG3]; amide I:18-II:C; thioether I:N-I:15, II:N-II:15)
- MuSK dimerization (compound concentration exceeded 40 nM): conversely tended to decrease
- luminescence (MuSK dimerization) (concentration range from the pM order to 40 nM): increased in a dose-dependent manner
